This is an account of results in EP4159721A1, “CONDENSED 3,3-DIFLUORO-PIPERIDINE DERIVATIVES AS INHIBITORS OF CORONAVIRUSES 3-CHYMOTRYPSIN-LIKE PROTEASE” (Qubit Pharmaceuticals, priority 2021, dated 2023).

Molecules are shown by their SMILES. pIC50: −log10 of the molar value. Read-outs that look alike come from different tables or passages of the source.

Assay [1] deals with T1, SARS-CoV-2 3CLpro (Severe acute respiratory syndrome coronavirus 2, UniProt P0DTD1). Nature of the assay: Binding assessment by Nuclear Magnetic Resonance (WaterLOGSY and STD). The arrangement: key: +++: strong binder; ++: binder; +/-: not to very low binder. The settings on record: NMR (WaterLOGSY, STD); 10 µM of 3CLpro, ligand 100 µM to 2 mM, pH=7.3.
Assay [2] addresses T1, SARS-CoV-2 3CLpro. Kind of assay: FRET-based assay of 3CLpro inhibitory activity. It is filed as biochemical.
In assay [3] the target is T1, SARS-CoV-2 3CLpro. Kind of assay: Binding studies by Mass Spectrometry (ESI-MS, denaturing conditions). To be noted: 10 µM 3CLpro, 1:1 or 10:1 compound:protein, 20 min at room temperature.

On to `CSc1cc(F)c2c(c1)NC(=O)C(F)(F)C2O` (single isomer, unassigned) [Compound 17 or 18], for which the “Binding Activity” value in assay [1] is recorded as “++”.
Regarding `CSc1cc2c(cn1)C(O)C(F)(F)CN2` (single isomer, unassigned) [Compound 3 or 4, 3,3-difluoro-7-(methylsulfanyl)-1,2,3,4-tetrahydro-1,6-naphthyridin-4-ol], the “Binding Activity” value in assay [1] is on record as “+++”.
For `Cc1nn(C)c2c1C(O)C(F)(F)C(=O)N2` (single isomer, unassigned) [Compound 19 or 20, 5,5-difluoro-4-hydroxy-1,3-dimethyl-1H,4H,5H,6H,7H-pyrazolo[3,4-b]pyridin-6-one], the “Binding Activity” value in assay [1] is “++”.
With `CSc1ccc2c(c1)NC(=O)C(F)(F)C2(C)O` (centres unmarked) [reference compound], in assay [1], the “Binding Activity” value is reported as “+/-”.
Take `O=C1Nc2cc(SC3CC3)ccc2C(O)C1(F)F` (single isomer, unassigned) [Compound 15 or 16]: the “Binding Activity” value in assay [1] is given as “++”.
Regarding `CSc1ccc2c(c1)NC(=O)CC2C` (centres unmarked) [reference compound], the “Binding Activity” value in assay [1] was “+/-”.
With `CSc1ccc2c(c1)NCC(F)(F)C2C` (single isomer, unassigned) [Compound 11 or 12, 3,3-difluoro-4-methyl-7-(methylsulfanyl)-1,2,3,4-tetrahydroquinoline], the “Binding Activity” value in assay [1] is recorded as “++”.
On the same count and under the same terms, to `CSc1ccc2c(c1)NC(=O)CC2=O` [reference compound] belongs “+/-”; to `CSc1ccc2c(c1)NC(=O)C(F)(F)C2O` (single isomer, unassigned) [Compound 5 or 6, 3,3-difluoro-4-hydroxy-7-(methylsulfanyl)-1,2,3,4-tetrahydroquinolin-2-one], “+++”.
For orientation: pIC50 means the IC50 on a negative log10 scale, so that one unit is a factor of ten. Turning to `CSc1ccc2c(c1)NC(=O)C(F)(F)C2=O` [Compound 14, 3,3-difluoro-7-(methylsulfanyl)-1,2,3,4-tetrahydroquinoline-2,4-dione], the pIC50 in assay [2] (0.02 µM 3CLpro, 5 µM peptide substrate, 20 minutes incubation at room temperature, triplicate, average and standard deviation, read-out: IC50) is 6.08. For the same compound, the Covalent binding entry in assay [3] is recorded as “Covalent binding is confirmed”.
Take `O=C1Nc2ccccc2C(O)C1(F)F` (centres unmarked) [reference compound]: in assay [1], the “Binding Activity” value was “+/-”.
In the case of `CSc1ccc2c(c1)NC(=O)C(F)(F)C2C` (single isomer, unassigned) [Compound 9 or 10, 3,3-difluoro-4-methyl-7-(methylsulfanyl)-1,2,3,4-tetrahydroquinolin-2-one], the “Binding Activity” value in assay [1] is “+++”.
As for `CSc1cc2c(cn1)C(O)C(F)(F)C(=O)N2` (single isomer, unassigned) [Compound 7 or 8, 3,3-difluoro-4-hydroxy-7-(methylsulfanyl)-1,2,3,4-tetrahydro-1,6-naphthyridin-2-one], the “Binding Activity” value in assay [1] is “++”.
With `CSc1ccc2c(c1)NCC(F)(F)C2O` (single isomer, unassigned) [Compound 1 or 2, 3,3-difluoro-7-(methylsulfanyl)-1,2,3,4-tetrahydroquinolin-4-ol], the “Binding Activity” value in assay [1] was “++”.
`CSc1cc2c(cn1)C(=O)C(F)(F)C(=O)N2` [Compound 13, 3,3-difluoro-7-(methylsulfanyl)-1,2,3,4-tetrahydro-1,6-naphthyridine-2,4-dione]: the negative logarithm of the IC50 (pIC50) in assay [2] was 5.64. In addition, in assay [3], the Covalent binding result was “Covalent binding is confirmed”.
